In brackets after ≈: the same amount, converted by molar mass. Activity calls are given as the source filed them. The calls are words filed in the database; no cut-off is given here.
What was measured:
[1] = Toxicity in BALB/c nude mouse xenografted with human A549 cells assessed as morphological changes in liver at 150 mg/kg, po bid by H&E staining based light microscopic analysis; format: organism-based; settings: in vivo
HCT-116 [2] = assay: Antitumor activity against human HCT-116 cells xenografted in BALB/c nude mouse assessed as inhibition of tumor growth at 150 mg/kg, po BID measured by caliper relative to control; format: functional; settings: HCT-116, po, read-out: TGI
[3] = target: DNA topoisomerase 2-alpha (Homo sapiens) (UniProt P11388); assay: Inhibition of TOP2 (unknown origin) assessed as formation of short DNA fragments using supercoiled plasmid DNA at 100 uM by ethidium bromide staining based gel
HCT-116 [4] = assay: Antitumor activity against human HCT-116 cells xenografted in BALB/c nude mouse assessed as necrosis at 150 mg/kg, po bid by H&E staining based light microscopic analysis; format: functional, organism-based
[5] = Toxicity in BALB/c nude mouse xenografted with human A549 cells assessed as morphological changes in kidney at 150 mg/kg, po bid by H&E staining based light microscopic analysis; format: organism-based; settings: in vivo
[6] = Half life in mouse liver microsomes; format: ADME, Microsome
[7] = Solubility of the compound in double distilled water; format: physicochemical
MDA-MB-231 = assay: Antiproliferative activity against human MDA-MB-231 cells assessed as inhibition of cell proliferation incubated for 72 hrs by CCK8 assay; format: functional, cell-based; settings: MDA-MB-231, 72 h
HCT-116 [8] = assay: Antiproliferative activity against human HCT-116 cells assessed as inhibition of cell proliferation incubated for 72 hrs by CCK8 assay; format: functional, cell-based; settings: HCT-116, 72 h
HCT-116 [9] = assay: Antitumor activity against human HCT-116 cells xenografted in BALB/c nude mouse assessed as inhibition of tumor growth at 60 mg/kg, po BID administered for 21 days measured by caliper relative to control; format: functional; settings: HCT-116, po, 504 h, time 21 day, read-out: TGI
A549 = assay: Antiproliferative activity against human A549 cells assessed as inhibition of cell proliferation incubated for 72 hrs by CCK8 assay; format: functional, cell-based; settings: A549, 72 h
[10] = target: T1, DNA topoisomerase 1 (Homo sapiens) (UniProt P11387); assay: Inhibition of TOP1 (unknown origin) assessed as decrease in relaxation of supercoiled DNA using pBR322 plasmid DNA as substrate at 100 uM by ethidium bromide staining based gel electrophoresis
T1 sequence (whole entry): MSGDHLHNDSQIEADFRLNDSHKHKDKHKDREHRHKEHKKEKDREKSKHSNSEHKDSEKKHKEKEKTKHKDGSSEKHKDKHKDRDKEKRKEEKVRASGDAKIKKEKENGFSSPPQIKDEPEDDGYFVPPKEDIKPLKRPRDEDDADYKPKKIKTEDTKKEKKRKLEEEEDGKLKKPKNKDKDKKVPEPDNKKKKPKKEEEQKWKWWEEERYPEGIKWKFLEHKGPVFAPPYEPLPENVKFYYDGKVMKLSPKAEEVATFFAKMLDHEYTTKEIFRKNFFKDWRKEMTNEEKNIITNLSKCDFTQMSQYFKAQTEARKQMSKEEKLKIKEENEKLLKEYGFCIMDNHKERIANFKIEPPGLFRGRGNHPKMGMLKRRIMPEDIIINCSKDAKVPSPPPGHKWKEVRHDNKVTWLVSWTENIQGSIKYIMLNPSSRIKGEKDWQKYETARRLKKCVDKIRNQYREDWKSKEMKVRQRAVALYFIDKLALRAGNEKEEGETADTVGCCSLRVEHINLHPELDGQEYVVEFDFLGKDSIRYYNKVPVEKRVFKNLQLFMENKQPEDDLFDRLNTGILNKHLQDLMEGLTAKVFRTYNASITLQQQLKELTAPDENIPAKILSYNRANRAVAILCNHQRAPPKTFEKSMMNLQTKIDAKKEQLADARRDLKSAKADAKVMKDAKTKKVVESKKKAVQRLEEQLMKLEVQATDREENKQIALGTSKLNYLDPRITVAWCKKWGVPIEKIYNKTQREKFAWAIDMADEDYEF

HCT-116 [11] = assay: Antitumor activity against human HCT-116 cells xenografted in BALB/c nude mouse assessed as inhibition of tumor growth at 16 mg/kg, ip QD administered for 21 days measured by caliper; format: functional, organism-based; settings: time 21.0 day
[12] = Toxicity in BALB/c nude nude mouse xenografted with human HCT-116 cells assessed as decrease in body weight at 0.5 mg/kg/day, ip QD administered for 16 consecutive days; format: organism-based; settings: in vivo, 384 h, time 16 day
HCT-116 [13] = assay: Antitumor activity against human HCT-116 cells xenografted in BALB/c nude nude mouse assessed as tumor growth inhibition at 16 mg/kg/day, ip QD administered for 16 consecutive days measured by caliper relative to control; format: functional; settings: HCT-116, ip, 384 h, time 16 day, read-out: TGI
HCT-116 [14] = assay: Antitumor activity against human HCT-116 cells xenografted in BALB/c nude mouse assessed as inhibition of tumor growth at 16 mg/kg/day, ip BID administered for 21 days measured by caliper; format: functional, organism-based; settings: time 21.0 day

Sequence of DNA topoisomerase 2-alpha (Homo sapiens) (P11388 whole entry, the tested form may be a part): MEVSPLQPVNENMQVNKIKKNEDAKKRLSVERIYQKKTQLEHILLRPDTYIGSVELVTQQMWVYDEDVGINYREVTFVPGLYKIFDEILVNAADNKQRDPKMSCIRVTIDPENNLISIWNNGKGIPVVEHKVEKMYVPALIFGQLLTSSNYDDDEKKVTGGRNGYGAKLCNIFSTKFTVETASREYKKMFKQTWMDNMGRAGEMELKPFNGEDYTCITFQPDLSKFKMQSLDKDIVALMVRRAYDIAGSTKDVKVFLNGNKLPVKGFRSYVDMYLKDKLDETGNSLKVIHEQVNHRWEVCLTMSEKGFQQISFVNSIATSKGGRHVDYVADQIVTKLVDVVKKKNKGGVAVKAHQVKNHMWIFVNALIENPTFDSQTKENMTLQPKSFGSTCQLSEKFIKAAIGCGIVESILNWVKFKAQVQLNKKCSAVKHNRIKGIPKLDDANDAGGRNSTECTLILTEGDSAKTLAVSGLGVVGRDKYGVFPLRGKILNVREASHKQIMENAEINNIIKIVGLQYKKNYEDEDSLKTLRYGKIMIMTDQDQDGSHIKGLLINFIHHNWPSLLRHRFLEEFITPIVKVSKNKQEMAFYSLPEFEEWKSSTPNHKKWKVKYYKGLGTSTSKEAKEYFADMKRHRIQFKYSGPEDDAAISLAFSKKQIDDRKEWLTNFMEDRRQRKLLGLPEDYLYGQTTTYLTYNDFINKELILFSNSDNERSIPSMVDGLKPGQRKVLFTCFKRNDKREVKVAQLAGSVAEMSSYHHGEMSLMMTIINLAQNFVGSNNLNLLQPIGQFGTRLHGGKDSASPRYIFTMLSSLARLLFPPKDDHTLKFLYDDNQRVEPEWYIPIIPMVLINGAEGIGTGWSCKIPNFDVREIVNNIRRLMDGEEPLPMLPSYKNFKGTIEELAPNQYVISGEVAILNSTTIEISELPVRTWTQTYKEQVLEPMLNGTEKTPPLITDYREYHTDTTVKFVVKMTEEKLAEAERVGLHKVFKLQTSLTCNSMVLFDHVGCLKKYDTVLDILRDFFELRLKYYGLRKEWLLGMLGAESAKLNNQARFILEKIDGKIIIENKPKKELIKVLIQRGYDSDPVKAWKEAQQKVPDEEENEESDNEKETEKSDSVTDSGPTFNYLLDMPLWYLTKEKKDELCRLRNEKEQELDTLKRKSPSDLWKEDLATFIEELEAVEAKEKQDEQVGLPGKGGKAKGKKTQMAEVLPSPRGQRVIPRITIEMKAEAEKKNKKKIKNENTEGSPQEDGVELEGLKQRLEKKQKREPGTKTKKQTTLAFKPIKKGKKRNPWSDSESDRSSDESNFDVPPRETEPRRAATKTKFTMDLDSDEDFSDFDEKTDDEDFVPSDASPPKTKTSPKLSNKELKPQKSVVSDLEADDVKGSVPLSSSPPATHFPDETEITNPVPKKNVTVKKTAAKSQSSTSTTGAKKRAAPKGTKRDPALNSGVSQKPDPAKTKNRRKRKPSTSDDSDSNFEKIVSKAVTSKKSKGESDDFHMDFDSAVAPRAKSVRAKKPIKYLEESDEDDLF

Compound | inhibition [3] | solubility [7] [µg/mL] | IC50 (MDA-MB-231) [nM] | IC50 (HCT-116 [8]) [nM] | IC50 (A549) [nM] | other results
CN1c2ccccc2C(=O)N2CCc3c([nH]c4ccc(O)cc34)[C@H]21 | Active | 11 (≈ 34.4 µM) | 94 | < 3 | 280 | Activity [1]: Non-Toxic; inhibition in vivo at 150 mg/kg (HCT-116 [2]): 57%; Activity (HCT-116 [4]): Active; Activity [5]: Non-Toxic; half-life [6]: 14.3 min; inhibition in vivo at 60 mg/kg (HCT-116 [9]): 24%
CN1c2ccccc2C(=O)N2CCc3c([nH]c4ccc(NC(=O)C5CCCN5)cc34)C21 (centres undefined) | Active | 15 (≈ 36.1 µM) | > 10000 | > 10000 | > 10000 | 
CN1c2ccccc2C(=O)N2CCc3c([nH]c4ccc(NC(=O)CN)cc34)C21 (centres undefined) | Active | 19 (≈ 50.6 µM) | 1200 | 1600 | 3700 | 
CN1c2ccccc2C(=O)N2CCc3c([nH]c4ccc(OC(=O)CCC(=O)O)cc34)C21 (centres undefined) | inactive | 15 (≈ 35.8 µM) | 260 | < 3 | 5490 | 
CN1c2ccccc2C(=O)N2CCc3c([nH]c4ccc(NC(=O)C(N)CCC(N)=O)cc34)C21 (centres undefined) | Active | 14 (≈ 31.4 µM) | > 10000 | 5800 | > 10000 | 
CN1c2ccccc2C(=O)N2CCc3c([nH]c4ccc(OC(=O)[C@@H]5CCCN5)cc34)C21 (some centres undefined) | Active | 30 (≈ 72 µM) | 1150 | 7 | 430 | inhibition in vivo at 150 mg/kg (HCT-116 [2]): 39%; Activity (HCT-116 [11]): inactive; Activity [12]: Toxic; inhibition in vivo at 16 mg/kg/day (HCT-116 [13]): 55%
CNCC(=O)Nc1ccc2[nH]c3c(c2c1)CCN1C(=O)c2ccccc2N(C)C31 (centres undefined) | Active | 25 (≈ 64.2 µM) | 1800 | 1400 | > 10000 | 
CC(C)[C@H](N)C(=O)Oc1ccc2[nH]c3c(c2c1)CCN1C(=O)c2ccccc2N(C)C31 (some centres undefined) | Active | 18 (≈ 43 µM) | 49 | < 3 | > 10000 | inhibition [10]: Active
CSCCC(N)C(=O)Nc1ccc2[nH]c3c(c2c1)CCN1C(=O)c2ccccc2N(C)C31 (centres undefined) | Active | 15 (≈ 33.4 µM) | 810 | 1600 | > 10000 | 
CN1c2ccccc2C(=O)N2CCc3c([nH]c4ccc(NS(C)(=O)=O)cc34)C21 (centres undefined) | Active | 29 (≈ 73.1 µM) | 190 | 460 | 720 | TGI (HCT-116 [14]): inactive
CN1c2ccccc2C(=O)N2CCc3c([nH]c4ccc(NC(=O)C5CCC(=O)N5)cc34)C21 (centres undefined) | Active | 11 (≈ 25.6 µM) | > 10000 | > 10000 | > 10000 | 
CN1c2ccccc2C(=O)N2CCc3c([nH]c4ccc(OC(=O)CCC(=O)OCCN5CCCCC5)cc34)C21 (centres undefined) | Active | 18 (≈ 33.9 µM) | 680 | < 3 | 9220 | 
CN1c2ccccc2C(=O)N2CCc3c([nH]c4ccc(NC(=O)C(N)Cc5ccc(O)cc5)cc34)C21 (centres undefined) | Active | 12 (≈ 24.9 µM) | 550 | 1260 | > 10000 | 
CN1c2ccccc2C(=O)N2CCc3c([nH]c4ccc(OC(=O)[C@@H](N)CO)cc34)C21 (some centres undefined) | Active | 24 (≈ 59 µM) | 2340 | < 3 | 2610 | inhibition [10]: Active
CN1c2ccccc2C(=O)N2CCc3c([nH]c4ccc(OC(=O)CCC(=O)OCCN5CCOCC5)cc34)C21 (centres undefined) | Active | 17 (≈ 31.9 µM) | 20 | < 3 | > 10000 | 
CC[C@@]1(O)C(=O)OCc2c1cc1n(c2=O)Cc2cc3ccccc3nc2-1 [CAMPTOTHECIN] |  |  | 241 | 17 | 170 | 
CN1c2ccccc2C(=O)N2CCc3c([nH]c4ccc(NC(=O)C(N)CO)cc34)C21 (centres undefined) | Active | 20 (≈ 49.3 µM) | 870 | 1900 | 6300 | 

The next lines start with results.

inhibition [3] | solubility [7] [µg/mL] | IC50 (MDA-MB-231) [nM] | IC50 (HCT-116 [8]) [nM] | IC50 (A549) [nM] | Compound | other results
Active | 16 (≈ 34.4 µM) | > 10000 | 4400 | > 10000 | CN1c2ccccc2C(=O)N2CCc3c([nH]c4ccc(NC(=O)C(N)Cc5ccccc5)cc34)C21 (centres undefined) | 
Active | 16 (≈ 38.2 µM) | 530 | 1400 | > 10000 | CN1c2ccccc2C(=O)N2CCc3c([nH]c4ccc(NC(=O)CCC(=O)O)cc34)C21 (centres undefined) | 
Active | 12 (≈ 23.8 µM) | 520 | 1700 | > 10000 | CN1c2ccccc2C(=O)N2CCc3c([nH]c4ccc(NC(=O)C(N)Cc5c[nH]c6ccccc56)cc34)C21 (centres undefined) | 
Active | 37 (≈ 92.9 µM) | 530 | 40 | 410 | CN1c2ccccc2C(=O)N2CCc3c([nH]c4ccc(OS(N)(=O)=O)cc34)C21 (centres undefined) | 
Active | 12 (≈ 24.2 µM) | > 10000 | 21 | > 10000 | CN1c2ccccc2C(=O)N2CCc3c([nH]c4ccc(OC(=O)[C@@H](N)COCc5ccccc5)cc34)C21 (some centres undefined) | inhibition [10]: Active
Active | 10 (≈ 31.4 µM) | 1800 | 390 | 4800 | CN1c2ccccc2C(=O)N2CCc3c([nH]c4ccc(N)cc34)C21 (centres undefined) | inhibition [10]: inactive; TGI (HCT-116 [14]): inactive
Active | 23 (≈ 57.9 µM) | 840 | 1100 | 5000 | CN1c2ccccc2C(=O)N2CCc3c([nH]c4ccc(NS(N)(=O)=O)cc34)C21 (centres undefined) | 
Active | 14 (≈ 32.4 µM) | > 10000 | > 10000 | > 10000 | CC(C)CC(N)C(=O)Nc1ccc2[nH]c3c(c2c1)CCN1C(=O)c2ccccc2N(C)C31 (centres undefined) | 
Active | 28 (≈ 71.9 µM) | 520 | 940 | 4900 | CC(N)C(=O)Nc1ccc2[nH]c3c(c2c1)CCN1C(=O)c2ccccc2N(C)C31 (centres undefined) | 
Active | 11 (≈ 26.2 µM) | > 10000 | 1600 | > 10000 | CC(O)C(N)C(=O)Nc1ccc2[nH]c3c(c2c1)CCN1C(=O)c2ccccc2N(C)C31 (centres undefined) | 
